Data: patent publication US20160367623A1, “AGONISTS OF GUANYLATE CYCLASE USEFUL FOR THE TREATMENT OF GASTROINTESTINAL DISORDERS, INFLAMMATION, CANCER AND OTHER DISORDERS” (priority 2015, published 2016)
Bridge positions count the residues as written; N and C are the ends. Ends that are not written are not given here.

Tested on: patients with chronic idiopathic constipation (CIC)
Assay: Second phase 3 CIC trial: CSBM weekly responders by week
Type: in vivo, human
Conditions: MRA
Source text: Both trials include a two-week pre-treatment baseline period, a 12-week treatment period, and a two-week post-treatment period. The phase 3 CIC program was designed to support regulatory submission in the U. S.
The primary endpoint for both trials is the proportion of durable overall responders (%), which is the current regulatory endpoint required for U.S. approval in CIC. The FDA has defined a durable overall responder as a patient who fulfills both ≧3 complete spontaneous bowel movements (CSBMs) per week plus an increase of ≧1 CSBM from baseline in the same week, for 9 out of the 12 treatment weeks. In addition, the same patient must be an overall responder for at least 3 of the last 4 treatment weeks in order to be considered a durable overall responder.
Patients were selected using Rome 3 criteria modified for CIC and had (1) fewer than 3 defecations per week, (2) loose stools occurring rarely without laxatives, (3) inadequate criteria for irritable bowel syndrome with constipation (IBS-C), and (4) at least two of the following applied to at least 25% of defecations: (a) straining during evacuation, (b) lumpy or hard stools, (c) sensation of anorectal obstruction or blockage. Rome 3 requires patients to fulfill the criteria for the last 3 months with symptom onset at least 6 months prior to diagnosis.

[1] = Post-Treatment Week 13, 3 mg, All Randomized (includes Duplicate Patients)
[2] = Post-Treatment Week 13, 3 mg, ITT Population
[3] = Post-Treatment Week 13, 3 mg, ITT Population-Excluding Duplicate Patients
[4] = Post-Treatment Week 13, 6 mg, All Randomized (includes Duplicate Patients)
[5] = Post-Treatment Week 13, 6 mg, ITT Population
[6] = Post-Treatment Week 13, 6 mg, ITT Population-Excluding Duplicate Patients
[7] = Post-Treatment Week 13, Active Combined, All Randomized (includes Duplicate Patients)
[8] = Post-Treatment Week 13, Active Combined, ITT Population-Excluding Duplicate Patients
[9] = Post-Treatment Week 13, Active Combined, ITT Population
[10] = Post-Treatment Week 14, 3 mg, All Randomized (includes Duplicate Patients)
[11] = Post-Treatment Week 14, 3 mg, ITT Population
[12] = Post-Treatment Week 14, 3 mg, ITT Population-Excluding Duplicate Patients
[13] = Post-Treatment Week 14, 6 mg, ITT Population
[14] = Post-Treatment Week 14, 6 mg, ITT Population-Excluding Duplicate Patients
[15] = Post-Treatment Week 14, Active Combined, ITT Population-Excluding Duplicate Patients
[16] = Post-Treatment Week 14, Active Combined, ITT Population
[17] = Week 1, 3 mg, ITT Population-Excluding Duplicate Patients
[18] = Week 1, 6 mg, ITT Population-Excluding Duplicate Patients
[19] = Week 1, Active Combined, ITT Population-Excluding Duplicate Patients
[20] = Week 1, Active Combined, ITT Population
[21] = Week 2, 3 mg, ITT Population-Excluding Duplicate Patients

For “Asn^1-Asp^2-Glu^3-Cys^4-Glu^5-Leu^6-Cys^7-Val^8-Asn^9-Val^10-Ala^11-Cys^12-Thr^13-Gly^14-Cys^15-Leu^16 (NDECELCVNVACTGCL; disulfide 4-12, 7-15) [Plecanatide, uroguanylin analogue, guanylate cyclase-C agonist; (C4:C12, C7:C15) bicycle peptide]”, the “Difference in Proportions (adjusted)” value (Post-Treatment Week 13, 3 mg minus placebo, All Randomized (includes Duplicate Patients)) was 0.042, the “Odds Ratio (adjusted)” value (Post-Treatment Week 13, 3 mg vs placebo, All Randomized (includes Duplicate Patients)) was 0.796 and the “CSBM Weekly Responders, n (%)” value [1] was 125 (26.6) n (%). The “Non-Responders, n (%)” value [1] was 345 (73.4) n (%), the “CSBM Weekly Responders, n (%)” value [2] was 121 (27.3) n (%) and the “Non-Responders, n (%)” value [2] was 322 (72.7) n (%). For the same substance, the “CSBM Weekly Responders, n (%)” value [3] was 119 (27.4) n (%), the “Non-Responders, n (%)” value [3] was 315 (72.6) n (%) and the “Difference in Proportions (adjusted)” value (Post-Treatment Week 13, 6 mg minus placebo, All Randomized (includes Duplicate Patients)) was 0.003. For the same substance, the “Odds Ratio (adjusted)” value (Post-Treatment Week 13, 6 mg vs placebo, All Randomized (includes Duplicate Patients)) was 0.981, the “CSBM Weekly Responders, n (%)” value [4] was 107 (22.7) n (%) and the “Non-Responders, n (%)” value [4] was 364 (77.3) n (%). The “CSBM Weekly Responders, n (%)” value [5] was 106 (23.6) n (%), the “Non-Responders, n (%)” value [5] was 343 (76.4) n (%) and the “CSBM Weekly Responders, n (%)” value [6] was 105 (23.7) n (%). The “Non-Responders, n (%)” value [6] was 338 (76.3) n (%), the “CSBM Weekly Responders, n (%)” value [7] was 232 (24.7) n (%) and the “Non-Responders, n (%)” value [7] was 709 (75.3) n (%). For the same substance, the “Difference in Proportions (adjusted)” value (Post-Treatment Week 13, 3 mg minus placebo, ITT Population-Excluding Duplicate Patients) was 0.045, the “Difference in Proportions (adjusted)” value (Post-Treatment Week 13, 3 mg minus placebo, ITT Population) was 0.044 and the “Odds Ratio (adjusted)” value (Post-Treatment Week 13, 3 mg vs placebo, ITT Population-Excluding Duplicate Patients) was 0.786. The “Odds Ratio (adjusted)” value (Post-Treatment Week 13, 3 mg vs placebo, ITT Population) was 0.792, the “Difference in Proportions (adjusted)” value (Post-Treatment Week 13, 6 mg minus placebo, ITT Population-Excluding Duplicate Patients) was 0.008 and the “Difference in Proportions (adjusted)” value (Post-Treatment Week 13, 6 mg minus placebo, ITT Population) was 0.007. For the same substance, the “Odds Ratio (adjusted)” value (Post-Treatment Week 13, 6 mg vs placebo, ITT Population-Excluding Duplicate Patients) was 0.954, the “Odds Ratio (adjusted)” value (Post-Treatment Week 13, 6 mg vs placebo, ITT Population) was 0.962 and the “CSBM Weekly Responders, n (%)” value [8] was 224 (25.5) n (%). The “Non-Responders, n (%)” value [8] was 653 (74.5) n (%), the “CSBM Weekly Responders, n (%)” value [9] was 227 (25.4) n (%) and the “Non-Responders, n (%)” value [9] was 665 (74.6) n (%). The “Difference in Proportions (adjusted)” value (Post-Treatment Week 14, 3 mg minus placebo, All Randomized (includes Duplicate Patients)) was 0.019, the “Odds Ratio (adjusted)” value (Post-Treatment Week 14, 3 mg vs placebo, All Randomized (includes Duplicate Patients)) was 0.886 and the “CSBM Weekly Responders, n (%)” value [10] was 95 (20.2) n (%). For the same substance, the “Non-Responders, n (%)” value [10] was 375 (79.8) n (%), the “CSBM Weekly Responders, n (%)” value [11] was 94 (21.2) n (%) and the “Non-Responders, n (%)” value [11] was 349 (78.8) n (%). For the same substance, the “CSBM Weekly Responders, n (%)” value [12] was 93 (21.4) n (%), the “Non-Responders, n (%)” value [12] was 341 (78.6) n (%) and the “Difference in Proportions (adjusted)” value (Post-Treatment Week 14, 6 mg minus placebo, All Randomized (includes Duplicate Patients)) was −0.003. The “Odds Ratio (adjusted)” value (Post-Treatment Week 14, 6 mg vs placebo, All Randomized (includes Duplicate Patients)) was 1.020, the “CSBM Weekly Responders, n (%)” value (Post-Treatment Week 14, 6 mg, All Randomized (includes Duplicate Patients)) was 85 (18.0) n (%) and the “CSBM Weekly Responders, n (%)” value [13] was 83 (18.5) n (%). For the same substance, the “Non-Responders, n (%)” value [13] was 366 (81.5) n (%), the “CSBM Weekly Responders, n (%)” value [14] was 82 (18.5) n (%) and the “Non-Responders, n (%)” value [14] was 361 (81.5) n (%). For the same substance, the “CSBM Weekly Responders, n (%)” value (Post-Treatment Week 14, Active Combined, All Randomized (includes Duplicate Patients)) was 180 (19.1) n (%), the “Difference in Proportions (adjusted)” value (Post-Treatment Week 14, 3 mg minus placebo, ITT Population-Excluding Duplicate Patients) was 0.024 and the “Difference in Proportions (adjusted)” value (Post-Treatment Week 14, 3 mg minus placebo, ITT Population) was 0.026. The “Odds Ratio (adjusted)” value (Post-Treatment Week 14, 3 mg vs placebo, ITT Population-Excluding Duplicate Patients) was 0.860, the “Odds Ratio (adjusted)” value (Post-Treatment Week 14, 3 mg vs placebo, ITT Population) was 0.852 and the “Difference in Proportions (adjusted)” value (Post-Treatment Week 14, 6 mg minus placebo, ITT Population-Excluding Duplicate Patients) was −0.005. The “Difference in Proportions (adjusted)” value (Post-Treatment Week 14, 6 mg minus placebo, ITT Population) was −0.002, the “Odds Ratio (adjusted)” value (Post-Treatment Week 14, 6 mg vs placebo, ITT Population-Excluding Duplicate Patients) was 1.032 and the “Odds Ratio (adjusted)” value (Post-Treatment Week 14, 6 mg vs placebo, ITT Population) was 1.011. The “CSBM Weekly Responders, n (%)” value [15] was 175 (20.0) n (%), the “Non-Responders, n (%)” value [15] was 702 (80.0) n (%) and the “CSBM Weekly Responders, n (%)” value [16] was 177 (19.8) n (%). The “Non-Responders, n (%)” value [16] was 715 (80.2) n (%), the “Difference in Proportions (adjusted)” value (Week 1, 3 mg minus placebo, All Randomized (includes Duplicate Patients)) was 0.123 and the “Odds Ratio (adjusted)” value (Week 1, 3 mg vs placebo, All Randomized (includes Duplicate Patients)) was 0.468. The “Non-Responders, n (%)” value (Week 1, 3 mg, All Randomized (includes Duplicate Patients)) was 342 (72.8) n (%), the “CSBM Weekly Responders, n (%)” value (Week 1, 3 mg, ITT Population) was 121 (27.3) n (%) and the “Non-Responders, n (%)” value (Week 1, 3 mg, ITT Population) was 322 (72.7) n (%). For the same substance, the “CSBM Weekly Responders, n (%)” value [17] was 121 (27.9) n (%), the “Non-Responders, n (%)” value [17] was 313 (72.1) n (%) and the “Difference in Proportions (adjusted)” value (Week 1, 6 mg minus placebo, All Randomized (includes Duplicate Patients)) was 0.106. For the same substance, the “Odds Ratio (adjusted)” value (Week 1, 6 mg vs placebo, All Randomized (includes Duplicate Patients)) was 0.513, the “Non-Responders, n (%)” value (Week 1, 6 mg, All Randomized (includes Duplicate Patients)) was 351 (74.5) n (%) and the “CSBM Weekly Responders, n (%)” value (Week 1, 6 mg, ITT Population) was 114 (25.4) n (%). The “Non-Responders, n (%)” value (Week 1, 6 mg, ITT Population) was 335 (74.6) n (%), the “CSBM Weekly Responders, n (%)” value [18] was 114 (25.7) n (%) and the “Non-Responders, n (%)” value [18] was 329 (74.3) n (%). For the same substance, the “Non-Responders, n (%)” value (Week 1, Active Combined, All Randomized (includes Duplicate Patients)) was 693 (73.6) n (%), the “Difference in Proportions (adjusted)” value (Week 1, 3 mg minus placebo, ITT Population-Excluding Duplicate Patients) was 0.123 and the “Difference in Proportions (adjusted)” value (Week 1, 3 mg minus placebo, ITT Population) was 0.118. The “Odds Ratio (adjusted)” value (Week 1, 3 mg vs placebo, ITT Population-Excluding Duplicate Patients) was 0.477, the “Odds Ratio (adjusted)” value (Week 1, 3 mg vs placebo, ITT Population) was 0.488 and the “Difference in Proportions (adjusted)” value (Week 1, 6 mg minus placebo, ITT Population-Excluding Duplicate Patients) was 0.102. The “Difference in Proportions (adjusted)” value (Week 1, 6 mg minus placebo, ITT Population) was 0.099, the “Odds Ratio (adjusted)” value (Week 1, 6 mg vs placebo, ITT Population-Excluding Duplicate Patients) was 0.533 and the “Odds Ratio (adjusted)” value (Week 1, 6 mg vs placebo, ITT Population) was 0.539. For the same substance, the “CSBM Weekly Responders, n (%)” value [19] was 235 (26.8) n (%), the “Non-Responders, n (%)” value [19] was 642 (73.2) n (%) and the “CSBM Weekly Responders, n (%)” value [20] was 235 (26.3) n (%). For the same substance, the “Non-Responders, n (%)” value [20] was 657 (73.7) n (%), the “Difference in Proportions (adjusted)” value (Week 2, 3 mg minus placebo, All Randomized (includes Duplicate Patients)) was 0.089 and the “Odds Ratio (adjusted)” value (Week 2, 3 mg vs placebo, All Randomized (includes Duplicate Patients)) was 0.582. The “CSBM Weekly Responders, n (%)” value (Week 2, 3 mg, All Randomized (includes Duplicate Patients)) was 120 (25.5) n (%), the “CSBM Weekly Responders, n (%)” value (Week 2, 3 mg, ITT Population) was 112 (25.3) n (%) and the “Non-Responders, n (%)” value (Week 2, 3 mg, ITT Population) was 331 (74.7) n (%). The “CSBM Weekly Responders, n (%)” value [21] was 110 (25.3) n (%) and the “Non-Responders, n (%)” value [21] was 324 (74.7) n (%).
